Results published in paper PMC11546786, “Designing Analogs of SAAP-148 with Enhanced Antimicrobial and Anti-LPS Activities” (International Journal of Molecular Sciences, 2024).
Ends that are not written are not given here.

How the values were obtained:
[1] = test system: Gram-negative bacteria (E. coli, P. aeruginosa, K. pneumoniae); test: Geometric mean of MICs against Gram-negative bacteria; format: cell-based; design: unit not given here
Procedure: (§1) The antibacterial activities of the peptides against […] were evaluated using a modified version of the Clinical Laboratory and Standards Institute (CLSI) broth microdilution method, as previously described. Briefly, the bacteria were cultured in liquid LB medium (comprising 10 g/L tryptone, 5 g/L yeast extract, and 10 g/L NaCl) at 37 °C until reaching mid-log phase. Subsequently, the bacterial concentration was adjusted to 1 × 10^6 colony-forming units (CFU)/mL. The peptides were then diluted serially with phosphate-buffered saline (PBS), followed by the addition of 50 μL of the diluted peptides to 50 μL of the bacterial suspension in a 96-well plate (Corning Inc., Lowell, MA, USA). After incubating at 37 °C for 18 to 20 h, the absorbance of each well was measured using a multi-well microplate reader (SpectraMax M5; Molecular Devices, Sunnyvale, CA, USA) at 600 nm.

[2] = test system: five bacterial strains; test: MICs against all five bacterial strains (geometric mean, range); format: cell-based; design: unit not given here; conditions: geometric mean of MICs against all five bacterial strains
Procedure: as §1

[3] = test system: E. coli; test: Membrane damage, PI staining and flow cytometry; format: cell-based, Escherichia coli; conditions: 6.25 μM peptide, OD600 0.5 in PBS, 37 °C, 30 min, flow cytometry
Procedure: (§2) Propidium iodide (PI) was utilized as a marker for assessing the structural integrity of cell membranes and the occurrence of cell death. The impact of peptides on BEAS-2B cells, E. coli, and S. aureus was investigated by treating the cells with peptides followed by PI staining and flow cytometry (FACS) analysis to evaluate peptide-induced membrane damage. Table 5 presents the results of PI staining in BEAS-2B cells (1 × 10^6) following treatment with peptides at a concentration of 6.25 μM. […] FACS analysis at a peptide concentration of 6.25 μM was employed to determine the membrane damage caused by peptides in E. coli and S. aureus cells (Table 5).
(§3) Peptide-induced membrane damage was evaluated by quantifying the influx of propidium iodide (PI). BEAS-2B cells (1 × 10^6 cells in 50 μL) were exposed to a final concentration of 6.25 μM peptide and incubated at 37 °C for 30 min, followed by PBS washing and re-suspension in PI solution (dissolved in PBS) at a final concentration of 2 μg/mL. Bacteria were cultured to mid-log phase at 37 °C, then diluted to an OD600 of 0.5 in phosphate-buffered saline (PBS). […] The bacteria were harvested and re-suspended in PI solution, with fluorescence signal analysis conducted using flow cytometry (Cytomics FC 500, Beckman Coulter, Indianapolis, IN, USA).

[4] = test system: BEAS-2B cells; test: Membrane damage, PI staining and flow cytometry; format: cell-based; conditions: 6.25 μM peptide, 1 × 10^6 cells, 37 °C, 30 min, flow cytometry
Procedure: as §2, §3

[5] = Reversed-phase HPLC retention time as measure of peptide hydrophobicity; format: physicochemical; conditions: retention time by reverse-phase HPLC, reflects hydrophobicity difference between analogues
Source text: The physicochemical parameters crucial for the antimicrobial activity of AMPs have been identified, encompassing net charge, helicity, hydrophobicity, and amphipathicity. The hydropathicity, mean relative hydrophobic moment, and charge of peptides were predicted using the HeliQuest (https://heliquest.ipmc.cnrs.fr/ (accessed on 12 March 2024)). Lysine is a hydrophilic amino acid, and its substitution leads to a decrease in the hydrophobicity of the SAAP-148 analogue. The anticipated results are consistent, with the degree of reduction in […] varying depending on the position at which lysine is substituted (Table 2). The amphipathicity of the peptides, as denoted by the μH (mean relative hydrophobic moment), is elaborated on in Table 2. The hydrophobic moment of SAAP-148 analogues was decreased except for SAAP-10, which is on account of the substitution occurring on the18th residue. (Figure 1) The 18th residue of SAAP-148 is glutamine, a polar amino acid residue, located at the junction of the hydrophobic and hydrophilic surfaces of the SAAP-148 α-helix. […] The retention time data determined by reversed-phase high-performance liquid chromatography (RP-HPLC) reflects the hydrophobicity difference between peptide analogues. It is well documented that the formation of a hydrophobic-binding domain due to peptide secondary structure can affect peptide interactions with reversed-phase matrices. This effect was observed particularly for amphipathic α-helical peptides. Given this preferred binding domain, amphipathic α-helical peptides are considerably more retentive than non-amphipathic peptides with the same amino acid composition.
This phenomenon was particularly evident in the case of amphipathic α-helical peptides. […] This discrepancy may be attributed to the lack of a well-defined α-helical structure in SAAP-148 and its analogues (Figure S1).

[6] = test system: S. aureus; test: Membrane damage, PI staining and flow cytometry; format: cell-based, Staphylococcus aureus; conditions: 6.25 μM peptide, OD600 0.5 in PBS, 37 °C, 30 min, flow cytometry
Procedure: as §2, §3

[7] = CD spectra, secondary structure by BeStSel; format: physicochemical; conditions: 30 μM SDS as printed, 100 μM peptide, 25 °C
Procedure: CD spectra (Figure S1) were acquired using a JASCO J-1500 spectropolarimeter (JASCO Inc., Easton, MD, USA) in 0.1 cm pathlength cells under nitrogen at 25 °C. The spectra were recorded in the range of 190 to 250 nm at a peptide concentration of 100 μM in SDS. Secondary structure was determined using the BeStSel server. Hydropathicity, mean relative hydrophobic moment, and charge of peptides were predicted using the HeliQuest (https://heliquest.ipmc.cnrs.fr/ (accessed on 12 March 2024)). The 3D structure of SAAP-148 and its analogues (Figure S2) was predicted using PEP-FOLD4 servers (https://bioserv.rpbs.univ-paris-diderot.fr/services/PEP-FOLD4/ (accessed on 19 June 2024)).

[8] = test system: Gram-positive bacteria (S. aureus, S. epidermidis); test: Geometric mean of MICs against Gram-positive bacteria; format: cell-based; design: unit not given here
Procedure: as §1

[9] = test system: Pseudomonas aeruginosa (1.2421); format: cell-based
Source text: (§4) The LL-37, SAAP-148 and its analogues peptides were synthesized according to the standard Fmoc procedure. The Fmoc-protected resin and monomers are first treated with a basic solvent (piperidine) to remove the amino protecting groups. The carboxyl group of the next amino acid is activated by an activator. The activated monomer reacts with the free amino group to form a peptide bond. These two steps are repeated in a cycle until the synthesis is complete. After synthesis, the peptide is eluted from the column and purified by reverse-phase semipreparative high-performance liquid chromatography as detailed in Table 1. The peptides were dissolved in PBS to create a 1000 μmol/L stock solution for subsequent use. The purity of the synthetic peptide exceeded 95%. Blood samples from healthy donors were obtained from the Fifth Medical Center of Chinese PLA General Hospital (Beijing, China). Human normal lung epithelial cells (BEAS-2B) and mouse mononuclear macrophages cells (RAW 264.7) were sourced from Beyotime Biotechnology (Beijing, China), along with the Enhanced Cell Counting Kit-8 (CCK-8) and nitric oxide detection kit. RPMI-1640 and DMEM were procured from Merck (Darmstadt, Germany), while FBS was obtained from ExCell Bio (Shanghai, China). LPS-B5 (from E. coli 055:B5) was procured from Invivogen (Toulouse, France). Five bacterial strains, including Escherichia coli (1.8732), Pseudomonas aeruginosa (1.2421), Klebsiella pneumonia (1.1736) as Gram-negative bacteria, and Staphylococcus aureus (1.8721) and Staphylococcus epidermidis (1.4260) as Gram-positive bacteria, were procured from the China General Microbiological Culture Collection Centre (CGMCC) (Beijing, China).
as §1

[10] = test system: Staphylococcus aureus (1.8721); format: cell-based
Source text: as §4, §1

[11] = test system: Escherichia coli (1.8732); format: cell-based
Source text: as §4, §1

[12] = test system: Staphylococcus epidermidis (1.4260); format: cell-based
Source text: as §4, §1

[13] = test system: human erythrocytes versus five bacterial strains; test: Therapeutic index (MHC/GM of MIC); conditions: ratio of MHC to geometric mean of MIC (five strains)
Procedure: The geometric mean of minimum inhibitory concentration (MIC) values (GM) from the five strains was calculated to provide a comprehensive assessment of antimicrobial activity, as presented in Table 4.
The therapeutic index (TI) is a widely utilized parameter for indicating the specificity of antimicrobial agents, which is determined by the ratio of MHC (hemolytic activity) and MIC (antimicrobial activity). Consequently, larger TI values signify greater antimicrobial specificity. The TI can be enhanced through one of three mechanisms: increasing antimicrobial activity, reducing hemolytic activity while maintaining antimicrobial activity, or a combination of both augmenting antimicrobial activity and diminishing hemolytic activity.

[14] = test system: Klebsiella pneumonia (1.1736); format: cell-based, Klebsiella pneumoniae
Source text: as §4, §1

[15] = test system: LPS-induced NO in RAW264.7 macrophages; test: Inhibition of LPS-induced NO production, Griess assay; format: cell-based, mouse; conditions: 6.25 μM peptide, LPS 100 ng/mL, 24 h, Griess assay (Figure 4)
Source text: LL-37 is a promising peptide for the regulation of inflammation and mitigation of endotoxin impact due to its ability to directly bind to LPS and counteract its biological effects, such as the inhibition of interleukin-6 (IL-6), interleukin 1β (IL-1β), and LPS-induced nitric oxide (NO). We conducted a series of experiments to assess the effectiveness of SAAP-148 and its analogues in reducing NO production by mouse mononuclear pacrophages cells (RAW264.7) after LPS stimulation. […] Subsequently, we employed a Griess assay to evaluate the levels of nitrite in RAW264.7 cells following treatment with SAAP-148 and its analogues, both with and without LPS treatment.
RAW264.7 cells were cultured in DMEM supplemented with 10% (v/v) FBS, 2 mM L-glutamine, 100 U/mL penicillin, and […] streptomycin, and maintained in a humidified incubator with 5% CO2 at 37 °C. Subsequently, RAW264.7 cells (1.5 × 10^4 cells/well) were seeded in 96-well plates (Corning Inc., Lowell, MA, USA) and incubated overnight. […] After incubation for 24 h, the culture supernatant was collected, and NO assay was performed according the instruction. The absorbance of the sample was measured at 550 nm.

Row | Compound | GM to G− [1] | MIC (GM) [2] | proportion of PI-positive cells, E. coli [3] [%] | proportion of PI-positive cells, BEAS-2B [4] [%] | Rt [5] [min] | proportion of PI-positive cells, S. aureus [6] [%] | Others [7] [%] | Turn [7] [%] | α-Helix [7] [%] | β-Antiparallel [7] [%] | β-Parallel [7] [%] | GM to G+ [8] | MIC P. aeruginosa [9] [µM] | MIC S. aureus [10] [µM] | MIC E. coli [11] [µM] | MIC S. epidermidis [12] [µM] | TI (MHC/MIC) [13] | MIC K. pneumoniae [14] [µM] | NO inhibition ability [15]
1 | CC[C@H](C)[C@H](NC(=O)[C@H](CCCCN)NC(=O)[C@H](CCC(=O)O)NC(=O)[C@H](CCCCN)NC(=O)[C@H](CO)NC(=O)[C@H](CCCCN)NC(=O)[C@H](CCCNC(=N)N)NC(=O)[C@H](Cc1ccccc1)NC(=O)[C@H](Cc1ccccc1)NC(=O)[C@H](CC(=O)O)NC(=O)CNC(=O)[C@H](CC(C)C)NC(=O)[C@@H](N)CC(C)C)C(=O)NCC(=O)N[C@@H](CCCCN)C(=O)N[C@@H](CCC(=O)O)C(=O)N[C@@H](Cc1ccccc1)C(=O)N[C@@H](CCCCN)C(=O)N[C@@H](CCCNC(=N)N)C(=O)N[C@H](C(=O)N[C@H](C(=O)N[C@@H](CCC(N)=O)C(=O)N[C@@H](CCCNC(=N)N)C(=O)N[C@H](C(=O)N[C@@H](CCCCN)C(=O)N[C@@H](CC(=O)O)C(=O)N[C@@H](Cc1ccccc1)C(=O)N[C@@H](CC(C)C)C(=O)N[C@@H](CCCNC(=N)N)C(=O)N[C@@H](CC(N)=O)C(=O)N[C@@H](CC(C)C)C(=O)N[C@H](C(=O)N1CCC[C@H]1C(=O)N[C@@H](CCCNC(=N)N)C(=O)N[C@H](C(=O)N[C@@H](CCC(=O)O)C(=O)N[C@@H](CO)C(=O)O)[C@@H](C)O)C(C)C)[C@@H](C)CC)C(C)C)[C@@H](C)CC [LL-37, reference compound] | 12.49 | 28.72 | 78.9 | 31.2 | 11.125 | 46.9 | 0 | 0 | 100 | 0 | 0 | 100 |  |  |  |  |  |  | 
2 | LKRVWKRVFKLLKRYWRQLKKPVR-NH2 [SAAP-148] | 4.96 | 7.18 |  |  | 12.416 |  | 0 | 0 | 93.5 | 6.5 | 0 | 12.51 | 3.13 | 50.00 | 6.25 | 3.13 | 0.11 | 6.25 | comparable efficacy to LL-37
